Results on 27 compounds are retold here after patent US9896441B2 (Lycera Corporation, priority 2014, dated 2018).

Where “and” joins values, the source holds several entries; their conditions need not be identical. Equal values may be shown once.

The first experiment addresses T1, RORγ-LBD (Homo sapiens, UniProt P51449).
T1 construct: made in house; host or cells: SF9 cells (baculovirus); used as diluted lysate
T1 sequence (P51449 269-508 limits assumed): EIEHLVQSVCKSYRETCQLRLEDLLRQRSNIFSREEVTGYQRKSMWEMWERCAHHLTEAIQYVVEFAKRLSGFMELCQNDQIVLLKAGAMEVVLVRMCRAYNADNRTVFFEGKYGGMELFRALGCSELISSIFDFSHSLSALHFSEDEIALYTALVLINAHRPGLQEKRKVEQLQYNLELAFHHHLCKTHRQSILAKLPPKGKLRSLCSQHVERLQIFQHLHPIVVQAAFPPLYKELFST
The experiment is described as follows: RORγ-Ligand Binding Domain (LBD) TR-FRET Assay. The experiment is classed as biochemical. The settings on record: RORγ-LBD TR-FRET. The method, then:
Assay procedures and results are described below.
HIS-tagged RORγ-LBD protein was expressed in SF9 cells using a baculovirus expression system. The lysate was diluted in assay buffer (50 mM Tris pH 7.0, 50 mM KCl, 1 mM EDTA, 0.1 mM DTT, 0.01% BSA) to obtain RORγ-LBD final concentration of ˜3 nM in a 384-well assay plate (need to titrate for each batch of protein).
A stock of biotinylated-LXXLL peptide from coactivator SRC1 (Biotin-[…]) was prepared in assay buffer and added to each well (200 nM final concentration). […] RORγ antagonist ursolic acid was also included at a final concentration of 2 μM. Compounds were diluted in DMSO and further diluted in assay buffer with a final DMSO concentration at 1%.
As usually defined, the EC50 is the concentration needed to bring the measured effect to its halfway point. Low readings indicate higher potency in that assay, high ones lower potency in that assay. For the compound `O=S(=O)(c1cccc(C(F)(F)F)c1)N1CCCc2cc(O[C@@H]3CCc4ccccc43)ccc21` [Example 25U, (R)-6-((2,3-dihydro-1H-inden-1-yl)oxy)-1-((3-(trifluoromethyl)-phenyl)sulfonyl)-1,2,3,4-tetrahydroquinoline], the half-maximal effective concentration (EC50) is more than 10 µM.
The compound `O=S(=O)(c1cccc(C(F)(F)F)c1)N1CCCc2cc(O[C@H]3CCc4ccccc43)ccc21` [Example 25V, (S)-6-((2,3-dihydro-1H-inden-1-yl)oxy)-1-((3-(trifluoromethyl)-phenyl)sulfonyl)-1,2,3,4-tetrahydroquinoline] returned an EC50 of 0.5 to 5 µM.
As for `O=S(=O)(c1cccc(C(F)(F)F)c1)N1CCCc2cc(Cl)c(OCc3c(F)cccc3Cl)cc21` [Example 28A], the EC50 is less than 0.5 µM.
The same measure, in the same setting: under `O=S(=O)(c1cccc(C(F)(F)F)c1)N1CCCc2cc(C3CC3)c(OCc3c(F)cccc3Cl)cc21` [Example 28B] stands less than 0.5 µM; under `O=S(=O)(c1cccc(C(F)(F)F)c1)N1CCCc2cc(C3CC3)c(OCc3c(F)cccc3C3CC3)cc21` [Example 28C], less than 0.5 µM.
Still for that read-out and setting: under `Cc1cc2c(cc1OCc1c(F)cccc1Cl)N(S(=O)(=O)c1cccc(C(F)(F)F)c1)CCC2` [Example 28D] stands less than 0.5 µM; under `CCn1cc(S(=O)(=O)N2C[C@H](CNC(C)=O)Oc3ccc(NCc4c(F)cccc4Cl)cc32)c(OCCO)n1` [Example 28E], less than 0.5 µM.
In turn, `O=S(=O)(c1cccc(C(F)(F)F)c1)N1CCCc2cc(Br)c(OCc3c(F)cccc3Cl)cc21` [Example 28F] showed an EC50 of less than 0.5 µM.
Same read-out and setting: under `CCOc1nn(CC)cc1S(=O)(=O)N1C[C@H](CNC(C)=O)Oc2ccc(NCc3c(F)cccc3Cl)cc21` [Example 28G] stands less than 0.5 µM; under `O=C(O)CC[C@H]1CN(S(=O)(=O)c2cccc(C(F)(F)F)c2)c2cc(/C=C/c3cccc4cn[nH]c34)ccc2O1` [Example 89BL, (S,E)-3-(6-(2-(1H-indazol-7-yl)vinyl)-4-((3-(trifluoromethyl)phenyl)sulfonyl)-3,4-dihydro-2H-benzo[b][1,4]oxazin-2-yl)propanoic acid], more than 10 µM; under `O=C(O)CC[C@H]1CN(S(=O)(=O)c2cccc(C(F)(F)F)c2)c2cc(/C=C/c3ccnn4cccc34)ccc2O1` [Example 89BM, (S,E)-3-(6-(2-(pynolo[1,2-b]pyridazin-4-yl)vinyl)-4-((3-(trifluoromethyl)phenyl)sulfonyl)-3,4-dihydro-2H-benzo[b][1,4]oxazin-2-yl)propanoic acid], 0.5 to 5 µM.
On the same count and under the same terms, under `Cc1noc(C)c1/C=C/c1ccc2c(c1)N(S(=O)(=O)c1cccc(C(F)(F)F)c1)C[C@H](CCC(=O)O)O2` [Example 89BR, (S,E)-3-(6-(2-(3,5-dimethylisoxazol-4-yl)vinyl)-4-((3-(trifluoromethyl)phenyl)sulfonyl)-3,4-dihydro-2H-benzo[b][1,4]-oxazin-2-yl)propanoic acid] stands more than 10 µM; under `COC(=O)CC[C@H]1CN(S(=O)(=O)c2cccc(C(F)(F)F)c2)c2cc(/C=C/c3c(C)noc3C)ccc2O1` [Example 89BS, (S,E)-methyl 3-(6-(2-(3,5-dimethylisoxazol-4-yl)vinyl)-4-((3-(trifluoromethyl)phenyl)-sulfonyl)-3,4-dihydro-2H-benzo[b][1,4]-oxazin-2-yl)propanoate], less than 0.5 µM.
Turning to `O=C(O)CC[C@H]1CN(S(=O)(=O)c2cccc(C(F)(F)F)c2)c2cc(/C=C/c3c[nH]nc3C(F)(F)F)ccc2O1` [Example 89BT, (S,E)-3-(6-(2-(3-(trifluoromethyl)-1H-pyrazol-4-yl)vinyl)-4-((3-(trifluoromethyl)phenyl)-sulfonyl)-3,4-dihydro-2H-benzo[b][1,4]oxazin-2-yl)propanoic acid], the EC50 was more than 10 µM.
Turning to `Cn1ccnc1/C=C/c1ccc2c(c1)N(S(=O)(=O)c1cccc(C(F)(F)F)c1)C[C@H](CCC(=O)O)O2` [Example 89BU, (S,E)-3-(6-(2-(1-methyl-1H-imidazol-2-yl)vinyl)-4-((3-(trifluoromethyl)phenyl)sulfonyl)-3,4-dihydro-2H-benzo[b][1,4]-oxazin-2-yl)propanoic acid], the EC50 fell in the range of 5 to 10 µM.
With `CS(=O)(=O)c1cccc(/C=C/c2ccc3c(c2)N(S(=O)(=O)c2cccc(C(F)(F)F)c2)C[C@H](CCC(=O)O)O3)c1` [Example 89BV, (S,E)-3-(6-(3-(methylsulfonyl)-styryl)-4((3-(trifluoromethyl)-phenyl)sulfonyl)-3,4-dihydro-2H-benzo[b][1,4]oxazin-2-yl)propanoic acid], the EC50 is more than 10 µM.
Still for that read-out and setting: under `CC(=O)c1cccc(/C=C/c2ccc3c(c2)N(S(=O)(=O)c2cccc(C(F)(F)F)c2)C[C@H](CCC(=O)O)O3)n1` [Example 89BX, (S,E)-3-(6-(2-(6-acetylpyridin-2-yl)vinyl)-4-((3-(trifluoromethyl)-phenyl)sulfonyl)-3,4-dihydro-2H-benzo[b][1,4]oxazin-2-yl)propanoic acid] stands more than 10 µM; under `Cn1cc(/C=C/c2ccc3c(c2)N(S(=O)(=O)c2cccc(C(F)(F)F)c2)C[C@H](CCC(=O)O)O3)c(C(F)(F)F)n1` [Example 89BY, (S,E)-3-(6-(2-(1-methyl-3-(trifluoromethyl)-1H-pyrazol-4-yl)vinyl)-4-((3-(trifluoromethyl)-phenyl)sulfonyl)-3,4-dihydro-2H-benzo[b][1,4]oxazin-2-yl)propanoic acid], more than 10 µM.
The same measure, in the same setting: under `CCCn1ccc(/C=C/c2ccc3c(c2)N(S(=O)(=O)c2cccc(C(F)(F)F)c2)C[C@H](CCC(=O)O)O3)n1` [Example 89BZ, (S,E)-3-(6-(2-(1-propyl-1H-pyrazol-3-yl)vinyl)-4-((3-(trifluoromethyl)phenyl)sulfonyl)-3,4-dihydro-2H-benzo[b][1,4]oxazin-2-yl)propanoic acid] stands more than 10 µM.
As for `O=C(O)CC[C@H]1CN(S(=O)(=O)c2cccc(C(F)(F)F)c2)c2cc(/C=C/c3c(Cl)cc(Cl)cc3Cl)ccc2O1` [Example 89CL, (S,E)-3-(6-(2,4,6-trichlorostyryl)-4-((3-(trifluoromethyl)-phenyl)sulfonyl)-3,4-dihydro-2H-benzo[b][1,4]oxazin-2-yl)propanoic acid], the 50% effective concentration (EC50) lay in the range of 0.5 to 5 µM.
Still for that read-out and setting: under `O=C(O)CC[C@H]1CN(S(=O)(=O)c2cccc(C(F)(F)F)c2)c2cc(/C=C/c3c(Cl)cc(OC(F)(F)F)cc3Cl)ccc2O1` [Example 89CN, (S,E)-3-(6-(2,6-dichloro-4-(trifluoromethoxy)styryl)-4-((3-(trifluoromethyl)phenyl)sulfonyl)-3,4-dihydro-2H-benzo[b][1,4]-oxazin-2-yl)propanoic acid] stands 0.5 to 5 µM; under `COC(=O)CC[C@H]1CN(S(=O)(=O)c2cccc(C(F)(F)F)c2)c2cc(/C=C/c3cccn4ccnc34)ccc2O1` [Example 89DE, methyl (S,E)-3-(6-(2-(imidazo[1,2-a]pyridin-8-yl)vinyl)-4-((3-(trifluoromethyl)-phenyl)sulfonyl)-3,4-dihydro-2H-benzo[b][1,4]oxazin-2-yl)propanoate], < 0.5 µM and 0.5 to 5 µM; under `O=C(O)CC[C@H]1CN(S(=O)(=O)c2cccc(OC(F)F)c2)c2cc(/C=C/c3nccnc3Cl)ccc2O1` [Example 89DS, (S,E)-3-(6-(2-(3-chloropyrazin-2-yl)vinyl)-4-((3-(difluoromethoxy)phenyl)sulfonyl)-3,4-dihydro-2H-benzo[b][1,4]-oxazin-2-yl)propanoic acid], more than 10 µM.
The same measure, in the same setting: under `COC(=O)CC[C@H]1CN(S(=O)(=O)c2cc(C(F)(F)F)cnc2OC(C)C)c2cc(/C=C/c3c(F)cccc3Cl)ccc2O1` [Example 89FL, methyl (S,E)-3-(6-(2-chloro-6-fluorostyryl)-4-((2-isopropoxy-5-(trifluoromethyl)pyridin-3-yl)sulfonyl)-3,4-dihydro-2H-benzo[b][1,4]oxazin-2-yl)propanoate] stands 0.5 to 5 µM.
On the same count and under the same terms, under `CCOc1ncc(C(F)(F)F)cc1S(=O)(=O)N1C[C@H](CCC(=O)OC)Oc2ccc(C=C3CCCCC3)cc21` [Example 95A, methyl (S)-3-(6-(cyclohexylidenemethyl)-4-((2-ethoxy-5-(trifluoromethyl)pyridin-3-yl)sulofnyl)-3,4-dihydro-2H-benzo[b][1,4]oxazin-2-yl)propanoate] stands 0.5 to 5 µM; under `O=C(O)CC[C@H]1CN(S(=O)(=O)c2cc(C(F)(F)F)cnc2OCCO)c2cc(C=C3CCC(O)CC3)ccc2O1` (stereo partly drawn) [Example 95V, 3-((2S)-6-((4-hydroxycyclohexylidene)-methyl)-4-((2-(2-hydroxyethoxy)-5-(trifluoromethyl)pyridin-3-yl)sulfonyl)-3,4-dihydro-2H-benzo[b][1,4]oxazin-2-yl)propanoic acid], 0.5 to 5 µM.

The same experiment, now with this note: with 2 μM ursolic acid (RORγ antagonist); highest test concentration 10 μM.
Regarding `C/C(=C\c1ccc2c(c1)N(S(=O)(=O)c1cc(C3CC3)cnc1OCCO)C[C@H](CCC(=O)O)O2)c1c(F)cccc1Cl` [Example 86BC, (S,E)-3-(6-(2-(2-chloro-6-fluorophenyl)prop-1-en-1-yl)-4-((5-cyclopropyl-2-(2-hydroxyethoxy)pyridin-3-yl)sulfonyl)-3,4-dihydro-2H-benzo[b][1,4]oxazin-2-yl)propanoic acid], the EC50 was less than 0.5 µM.
